For three compounds, Kd and IC50 results are on record in ChEMBL document CHEMBL1130661, “Design and synthesis of SH3 domain binding ligands: modifications of the consensus sequence XPpXP” (Bioorg Med Chem Lett, 1998).

The structures appear in SMILES notation.

A short description of the assay: Compound was tested for the […] domain binding using BIA core binding assay.

For orientation: Kd means a measure of binding affinity in units of concentration. A high value points to weaker binding. `CC(C)C[C@H](NC(=O)[C@H](CO)NC(=O)[C@@H](N)C(C)C)C(=O)N[C@@H](C)C(=O)N[C@@H](CCCN=C(N)N)C(=O)N[C@@H](CCCN=C(N)N)C(=O)N1CCC[C@H]1C(=O)N[C@@H](CC(C)C)C(=O)N1CCC[C@H]1C(=O)N1CCC[C@H]1C(=O)N[C@@H](CC(C)C)C(=O)N1CCC[C@H]1C(=O)O`: the Kd was 1.6 µM.

As a reminder, the IC50 is the concentration that inhibits the measured activity by half. Read a high IC50 as lower potency. In turn, `CC(=O)N1CCC[C@@H]1C(=O)N[C@@H](CCCN=C(N)N)C(=O)N1CCC[C@@H]1C(=O)N[C@@H](CC(C)C)C(=O)N1CCC[C@@]12CC[C@@H]1SC[C@H](C(=O)N[C@@H](C)C(=O)N3CCC[C@H]3C(=O)NCC(=O)O)N1C2=O` returned an IC50 of 75 µM.

Take `CC(=O)N1CCC[C@@H]1C(=O)N[C@@H](CCCN=C(N)N)C(=O)N1CCC[C@@H]1C(=O)N[C@@H](CC(C)C)C(=O)N1CCC[C@]12CC[C@H]1SC[C@@H](C(=O)N[C@@H](C)C(=O)N3CCC[C@H]3C(=O)NCC(=O)O)N1C2=O`: the IC50 is 46 µM.
